# Experimental data published in patent US10538555B2, “Macrocyclic inhibitors of the PD-1/PD-L1 and CD80(B7-1)/PD-L1 protein/protein interactions” (BRISTOL-MYERS SQUIBB COMPANY, priority 2014, dated 2020).
# Read-outs that look alike come from different tables or passages of the source. *1 amine or outer side, *2 acyl side, *3 side chain or, on linkers, in order; H or OH if unused. Where a SMILES comes first, the peptide text is derived from it. Bridges are numbered along the chain shown (N, C = ends). [ ]: non-standard residue; d: D form. ξ: configuration not given here. Trp(1-CH2COOH) = N[C@@H](Cc1cn(CC(=O)O)c2ccccc12)C(=O)O; Phe(3,4,5-F3) = N[C@@H](Cc1cc(F)c(F)c(F)c1)C(=O)O; Phe(3,4-F2) = N[C@@H](Cc1ccc(F)c(F)c1)C(=O)O; Trp(1-Me) = Cn1cc(C[C@H](N)C(=O)O)c2ccccc21; NMePhe(4-F) = CN[C@@H](Cc1ccc(F)cc1)C(=O)O; d(cisHyp) = O=C(O)[C@H]1C[C@@H](O)CN1; Bta = N[C@@H](Cc1csc2ccccc12)C(=O)O; ξPro(4R-OH) = O=C(O)C1C[C@@H](O)CN1; Hyp = O=C(O)[C@@H]1C[C@@H](O)CN1; NMeF = CN[C@@H](Cc1ccccc1)C(=O)O; X1 = O=C([C@H]1COCCN1[*:1])[*:2]; dHyp = O=C(O)[C@H]1C[C@H](O)CN1; Aad = N[C@@H](CCCC(=O)O)C(=O)O; NMehSer = CN[C@@H](CCO)C(=O)O; NMeNle = CCCC[C@H](NC)C(=O)O; Pip = O=C(O)[C@@H]1CCCCN1; dPip = O=C(O)[C@H]1CCCCN1; hSer = N[C@@H](CCO)C(=O)O; ξR = N=C(N)NCCCC(N)C(=O)O; NMeA = CN[C@@H](C)C(=O)O; Orn = NCCC[C@H](N)C(=O)O; Dab = NCC[C@H](N)C(=O)O; Abu = CC[C@H](N)C(=O)O; Dap = NC[C@H](N)C(=O)O; ξC = NC(CS)C(=O)O; Sar = CNCC(=O)O
# Biological target: T1, Human PD-L1/PD-1 (Homo sapiens, UniProt Q9NZQ7)
# T1 construct: TVMV protease cleavage site (C); made in house; host or cells: HEK293T cells
# T1 sequence (Q9NZQ7 with tags, fused parts or gaps): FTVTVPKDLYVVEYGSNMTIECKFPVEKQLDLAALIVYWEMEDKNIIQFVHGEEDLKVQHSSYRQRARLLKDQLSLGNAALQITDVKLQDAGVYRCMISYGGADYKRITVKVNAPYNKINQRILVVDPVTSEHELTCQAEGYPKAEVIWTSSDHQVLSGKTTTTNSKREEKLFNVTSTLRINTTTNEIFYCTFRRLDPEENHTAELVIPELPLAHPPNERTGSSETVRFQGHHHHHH
# Experiment: HTRF Human PD-L1/PD-1 binding assay (PD-1-Ig/PD-L1-His)
# Conditions: PD-L1-His 10 nM, PD-1-Ig 20 nM
# How it was run: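 Truncated Fc-fused human PD-1 (aa 25-167) at 20 nM and His-tagged PD-L1 (aa 18-239) at 10 nM final are used, with peptides preincubated 15 min with PD-L1. Detection uses europium-cryptate anti-Ig and APC anti-His antibodies; 665/620 nm ratio.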
# [1] = class symbol, read-out: HTRF Human PD-L1/PD-1 Binding Assay IC50 Range
SMILES,IC50 [1] [nM],IC50 (read-out: HTRF Human PD-L1/PD-1 Binding Assay IC50) [nM]
CCCC[C@H]1C(=O)N2CCC[C@@H]2C(=O)N[C@@H](CO)C(=O)N[C@@H](CC)C(=O)N(C)[C@@H](Cc2ccccc2)C(=O)N[C@@H](Cc2ccc(O)cc2)C(=O)N(C)CC(=O)N[C@@H](Cc2csc3ccccc23)C(=O)N[C@@H](Cc2ccc(O)cc2)C(=O)N[C@@H](CC(C)C)C(=O)N[C@H](C(=O)NCC(N)=O)CSCC(=O)N[C@@H](Cc2ccccc2)C(=O)N(C)[C@@H](Cc2ccccc2)C(=O)N1C [Example 10059] ({CH2CO}-F[NMeF][NMeNle][dP]S[Abu][NMeF]Y[Sar][Bta]YLCG-NH2; thioether N-13),10 to 99.9,
CCCC[C@H]1C(=O)N(C)[C@@H](CCCC)C(=O)N[C@@H](CCC(=O)O)C(=O)N[C@H](C(=O)NCC(N)=O)CSCC(=O)N[C@@H](Cc2ccc(O)cc2)C(=O)N(C)[C@@H](C)C(=O)N[C@@H](CC(=O)O)C(=O)N2CCC[C@H]2C(=O)N[C@@H](CN)C(=O)N[C@@H](CCC(N)=O)C(=O)N2C[C@H](O)C[C@H]2C(=O)N[C@@H](Cc2c[nH]c3ccccc23)C(=O)N[C@@H](CO)C(=O)N[C@@H](Cc2cn(CC(=O)O)c3ccccc23)C(=O)N1C [Example 6289] ({CH2CO}-Y[NMeA]DP[Dap]Q[Hyp]WS[Trp(1-CH2COOH)][NMeNle][NMeNle]ECG-NH2; thioether N-14),1 to 9.9,
CCCC[C@H]1C(=O)N(C)[C@@H](CCCC)C(=O)N[C@@H](CC(C)C)C(=O)N[C@H](C(=O)NCC(N)=O)CSCC(=O)N[C@@H](Cc2ccc(O)cc2)C(=O)N(C)[C@@H](C)C(=O)N[C@@H](CC(=O)O)C(=O)N2CCC[C@H]2C(=O)N[C@@H](Cc2cnc[nH]2)C(=O)N[C@@H](CCC(N)=O)C(=O)N2C[C@H](O)C[C@H]2C(=O)N[C@@H](Cc2c[nH]c3ccccc23)C(=O)N[C@@H](CO)C(=O)N[C@@H](Cc2cn(C)c3ccccc23)C(=O)N1C [Example 1503] ({CH2CO}-Y[NMeA]DPHQ[Hyp]WS[Trp(1-Me)][NMeNle][NMeNle]LCG-NH2; thioether N-14),1 to 9.9,
CCCC[C@H]1C(=O)N(C)[C@@H](CCCC)C(=O)N[C@@H](CCCN)C(=O)NC(C(=O)NCC(N)=O)CSCC(=O)N[C@@H](Cc2ccc(O)cc2)C(=O)N(C)[C@@H](C)C(=O)N[C@@H](CC(N)=O)C(=O)N2CCC[C@H]2C(=O)N[C@@H](CC(N)=O)C(=O)N[C@@H](CC(C)C)C(=O)N2C[C@H](O)C[C@H]2C(=O)N[C@@H](Cc2c[nH]c3ccccc23)C(=O)N[C@@H](CO)C(=O)N[C@@H](Cc2c[nH]c3ccccc23)C(=O)N1C (stereo partly drawn) [Example 9157] ({CH2CO}-Y[NMeA]NPNL[Hyp]WSW[NMeNle][NMeNle][Orn][ξC]G-NH2; thioether N-14),1 to 9.9,
CCCC[C@H]1C(=O)N2C[C@H](O)C[C@@H]2C(=O)N[C@@H](CC(=O)O)C(=O)N[C@@H](C(C)C)C(=O)N(C)[C@@H](Cc2ccccc2)C(=O)N[C@@H](CC(N)=O)C(=O)N2C[C@H](O)C[C@@H]2C(=O)N[C@@H](Cc2c[nH]c3ccccc23)C(=O)N[C@@H](Cc2ccc(O)cc2)C(=O)N[C@@H](CC(C)C)C(=O)N[C@H](C(=O)NCC(N)=O)CSCC(=O)N[C@@H](Cc2ccc(F)c(F)c2)C(=O)N(C)[C@@H](Cc2ccccc2)C(=O)N1C [Example 9292],1 to 9.9,
CCCC[C@H]1C(=O)N(C)[C@@H](CCCC)C(=O)N[C@@H](CCC(=O)O)C(=O)N[C@H](C(=O)NCC(N)=O)CSCC(=O)N[C@@H](Cc2ccc(O)cc2)C(=O)N(C)[C@@H](C)C(=O)N[C@@H](CC(N)=O)C(=O)N2CCC[C@H]2C(=O)N[C@@H](CO)C(=O)N[C@@H](CCC(=O)O)C(=O)N2C[C@H](O)C[C@H]2C(=O)N[C@@H](Cc2c[nH]c3ccccc23)C(=O)N[C@@H](CCN)C(=O)N[C@@H](Cc2c[nH]c3ccccc23)C(=O)N1C [Example 5167] ({CH2CO}-Y[NMeA]NPSE[Hyp]W[Dab]W[NMeNle][NMeNle]ECG-NH2; thioether N-14),1 to 9.9,
CCCC[C@H]1C(=O)N(C)[C@@H](CCCC)C(=O)N[C@@H](C)C(=O)NC(C(=O)NCC(N)=O)CSCC(=O)N[C@@H](Cc2ccc(O)cc2)C(=O)N(C)[C@@H](C)C(=O)N[C@@H](CC(N)=O)C(=O)N2CCC[C@H]2C(=O)N[C@@H](CC(N)=O)C(=O)N[C@@H](CC(C)C)C(=O)N2CCC[C@H]2C(=O)N[C@@H](Cc2c[nH]c3ccccc23)C(=O)N[C@@H](CO)C(=O)N[C@@H](Cc2c[nH]c3ccccc23)C(=O)N1C (stereo partly drawn) [Example 9132] ({CH2CO}-Y[NMeA]NPNLPWSW[NMeNle][NMeNle]A[ξC]G-NH2; thioether N-14),10 to 99.9,
"COCC[C@H]1C(=O)N2C[C@@H](O)C[C@@H]2C(=O)N[C@@H](CC(=O)O)C(=O)N[C@@H](C(C)C)C(=O)N(C)[C@@H](Cc2ccccc2)C(=O)N[C@@H](CCC(=O)O)C(=O)N2CCOC[C@@H]2C(=O)N[C@@H](Cc2c[nH]c3ccccc23)C(=O)N[C@@H](Cc2ccc(O)cc2)C(=O)N[C@@H](CCCN)C(=O)N[C@H](C(=O)NCC(N)=O)CSCC(=O)N[C@@H](Cc2cc(F)c(F)c(F)c2)C(=O)N(C)[C@@H](Cc2ccccc2)C(=O)N1C [Example 9268] ({CH2CO}-[Phe(3,4,5-F3)][NMeF][NMehSer](Me)[dHyp]DV[NMeF]E[X1]WY[Orn]CG-NH2; thioether N-13)",1 to 9.9,
CCCC[C@H]1C(=O)N(C)[C@@H](CCCC)C(=O)N[C@@H](CCC(=O)O)C(=O)N[C@H](C(=O)NCC(N)=O)CSCC(=O)N[C@@H](Cc2ccc(O)cc2)C(=O)N2CCCC[C@H]2C(=O)N[C@@H](CC(N)=O)C(=O)N2CCC[C@H]2C(=O)N[C@@H](Cc2cnc[nH]2)C(=O)N[C@@H](CCC(N)=O)C(=O)N2C[C@H](O)C[C@H]2C(=O)N[C@@H](Cc2c[nH]c3ccccc23)C(=O)N[C@@H](CO)C(=O)N[C@@H](Cc2c[nH]c3ccccc23)C(=O)N1C [Example 1250] ({CH2CO}-Y[Pip]NPHQ[Hyp]WSW[NMeNle][NMeNle]ECG-NH2; thioether N-14),1 to 9.9,
"CCCC[C@H]1C(=O)N2C[C@H](O)C[C@@H]2C(=O)N[C@@H](CC(=O)O)C(=O)N[C@@H](C(C)C)C(=O)N(C)[C@@H](Cc2ccccc2)C(=O)N[C@@H](CCN)C(=O)N2C[C@H](O)C[C@@H]2C(=O)N[C@@H](Cc2c[nH]c3ccccc23)C(=O)N[C@@H](Cc2ccc(O)cc2)C(=O)N[C@@H](CC(C)C)C(=O)N[C@H](C(=O)NCC(N)=O)CSCC(=O)N[C@@H](Cc2ccc(F)c(F)c2)C(=O)N(C)[C@@H](Cc2ccccc2)C(=O)N1C [Example 9298] ({CH2CO}-[Phe(3,4-F2)][NMeF][NMeNle][d(cisHyp)]DV[NMeF][Dab][d(cisHyp)]WYLCG-NH2; thioether N-13)",1 to 9.9,
CCCC[C@H]1C(=O)N(C)[C@@H](CCCC)C(=O)N[C@@H](CCCNC(=N)N)C(=O)NC(C(=O)NCC(N)=O)CSCC(=O)N[C@@H](Cc2ccc(O)cc2)C(=O)N(C)[C@@H](C)C(=O)N[C@@H](CC(N)=O)C(=O)N2CCC[C@H]2C(=O)N[C@@H](CCO)C(=O)N[C@@H](CO)C(=O)N2CCC[C@H]2C(=O)N[C@@H](Cc2c[nH]c3ccccc23)C(=O)N[C@@H](CO)C(=O)N[C@@H](Cc2csc3ccccc23)C(=O)N1C (stereo partly drawn) [Example 10022] ({CH2CO}-Y[NMeA]NP[hSer]SPWS[Bta][NMeNle][NMeNle]R[ξC]G-NH2; thioether N-14),,134
CCCC[C@H]1C(=O)N(C)[C@@H](CCCC)C(=O)N[C@@H](CN)C(=O)N[C@H](C(=O)NCC(N)=O)CSCC(=O)N[C@@H](Cc2ccc(O)cc2)C(=O)N2CCCC[C@H]2C(=O)N[C@@H](CC(N)=O)C(=O)N2CCC[C@H]2C(=O)N[C@@H](CN)C(=O)N[C@@H](CCC(=O)O)C(=O)N2C[C@H](O)C[C@H]2C(=O)N[C@@H](Cc2c[nH]c3ccccc23)C(=O)N[C@@H](CCN)C(=O)N[C@@H](Cc2cn(CC(=O)O)c3ccccc23)C(=O)N1C [Example 1295] ({CH2CO}-Y[Pip]NP[Dap]E[Hyp]W[Dab][Trp(1-CH2COOH)][NMeNle][NMeNle][Dap]CG-NH2; thioether N-14),10 to 99.9,
CCCC[C@H]1C(=O)N(C)[C@@H](CCCC)C(=O)NC(CCCNC(=N)N)C(=O)N[C@H](C(=O)NCC(N)=O)CCCC(=O)N[C@@H](Cc2ccc(O)cc2)C(=O)N(C)[C@@H](C)C(=O)N[C@@H](CC(N)=O)C(=O)N2CCC[C@H]2C(=O)N[C@@H](CN)C(=O)N[C@@H](CC(C)C)C(=O)N2C[C@H](O)CC2C(=O)N[C@@H](Cc2c[nH]c3ccccc23)C(=O)N[C@@H](CO)C(=O)N[C@@H](Cc2c[nH]c3ccccc23)C(=O)N1C (stereo partly drawn) [Example 7067] (Y[NMeA]NP[Dap]L[ξPro(4R-OH)]WSW[NMeNle][NMeNle][ξR][Aad]G-NH2; lactam N-14),10 to 99.9,
CCCC[C@H]1C(=O)N(C)[C@@H](CCCC)C(=O)N[C@@H](CCC(=O)O)C(=O)N[C@H](C(=O)NCC(N)=O)CSCC(=O)N[C@@H](Cc2ccc(O)cc2)C(=O)N(C)[C@@H](C)C(=O)N[C@@H](CC(=O)O)C(=O)N2CCC[C@H]2C(=O)N[C@@H](CO)C(=O)N[C@@H](CCC(N)=O)C(=O)N2C[C@H](O)C[C@H]2C(=O)N[C@@H](Cc2c[nH]c3ccccc23)C(=O)N[C@@H](CCN)C(=O)N[C@@H](Cc2c[nH]c3ccccc23)C(=O)N1C [Example 5221] ({CH2CO}-Y[NMeA]DPSQ[Hyp]W[Dab]W[NMeNle][NMeNle]ECG-NH2; thioether N-14),1 to 9.9,
"CCCC[C@H]1C(=O)N2CCC[C@@H]2C(=O)N[C@@H](CN)C(=O)N[C@@H](C(C)C)C(=O)N(C)[C@@H](Cc2ccccc2)C(=O)N[C@@H](CCC(=O)O)C(=O)N2CCCC[C@@H]2C(=O)N[C@@H](Cc2c[nH]c3ccccc23)C(=O)N[C@@H](Cc2ccc(O)cc2)C(=O)N[C@@H](CC(C)C)C(=O)N[C@H](C(=O)NCC(N)=O)CSCC(=O)N[C@@H](Cc2cc(F)c(F)c(F)c2)C(=O)N(C)[C@@H](Cc2ccc(F)cc2)C(=O)N1C [Example 10578] ({CH2CO}-[Phe(3,4,5-F3)][NMePhe(4-F)][NMeNle][dP][Dap]V[NMeF]E[dPip]WYLCG-NH2; thioether N-13)",1 to 9.9,
